Reference: patent publication US20110218103A1, “Fluoroalkyl-substituted 2-amidobenzimidazoles” (BAYER CROPSCIENCE AG, priority 2010, published 2011)

Legend:
Assay type in all cases: in vivo
[1] = test system: Zea mays (ZEAMX); assay: Cold stress test on crop plants, spray application in greenhouse, visual damage rating; settings: 25 g/ha, mean of three results
Protocol: Seeds of monocotyledonous and dicotyledonous crop plants were placed in sandy loam in wood-fiber pots, covered with soil and cultivated in a greenhouse under good growth conditions. The test plants were treated at the early leaf stage (BBCH10-BBCH13). To ensure uniform water supply before commencement of stress, the potted plants were supplied with the maximum amount of water immediately beforehand by dam irrigation and, after application, transferred in plastic inserts in order to prevent subsequent, excessively rapid drying. The inventive compounds, formulated in the form of wettable powders (WP), wettable granules (WG), suspension concentrates (SC) or emulsion concentrates (EC), were sprayed onto the green parts of the plants as an aqueous suspension at an equivalent water application rate of 600 l/ha with addition of 0.2% wetting agent (agrotin). Substance application was followed immediately by stress treatment of the plants (cold or drought stress). For cold stress treatment, the plants were kept under the following controlled conditions: “day”: 12 hours with illumination at 8° C. “night”: 12 hours without illumination at 1° C. The duration of the respective stress phases was guided mainly by the state of the untreated, stressed control plants and thus varies from crop to crop. It was ended (by re-irrigating or transfer to a greenhouse with good growth conditions) as soon as irreversible damage is observed on the untreated, stressed control plants. In the case of dicotyledonous crops, for example oilseed rape and soya, the duration of the drought stress phase was between 3 and 5 days, in the case of monocotyledonous crops, for example wheat, barley or corn, between 6 and 10 days. The duration of the cold stress phase varied between 12 and 14 days. The end of the stress phase was followed by an approx. 5-7-day recovery phase, during which the plants were once again kept under good growth conditions in a greenhouse. […] The intensity of damage was first assessed as a percentage (100%=plants have died, 0%=like control plants). […]

[2] = test system: Brassica napus (BRSNS); assay: Drought stress test on crop plants, spray application in greenhouse, visual damage rating; settings: 50 g/ha, mean of three results
Protocol: Seeds of monocotyledonous and dicotyledonous crop plants were placed in sandy loam in wood-fiber pots, covered with soil and cultivated in a greenhouse under good growth conditions. The test plants were treated at the early leaf stage (BBCH10-BBCH13). To ensure uniform water supply before commencement of stress, the potted plants were supplied with the maximum amount of water immediately beforehand by dam irrigation and, after application, transferred in plastic inserts in order to prevent subsequent, excessively rapid drying. The inventive compounds, formulated in the form of wettable powders (WP), wettable granules (WG), suspension concentrates (SC) or emulsion concentrates (EC), were sprayed onto the green parts of the plants as an aqueous suspension at an equivalent water application rate of 600 l/ha with addition of 0.2% wetting agent (agrotin). Substance application was followed immediately by stress treatment of the plants (cold or drought stress). For cold stress treatment, the plants were kept under the following controlled conditions: Drought stress was induced by gradual drying out under the following conditions: “day”: 14 hours with illumination at 26° C. “night”: 10 hours without illumination at 18° C. The duration of the respective stress phases was guided mainly by the state of the untreated, stressed control plants and thus varies from crop to crop. It was ended (by re-irrigating or transfer to a greenhouse with good growth conditions) as soon as irreversible damage is observed on the untreated, stressed control plants. In the case of dicotyledonous crops, for example oilseed rape and soya, the duration of the drought stress phase was between 3 and 5 days, in the case of monocotyledonous crops, for example wheat, barley or corn, between 6 and 10 days. The duration of the cold stress phase varied between 12 and 14 days. The end of the stress phase was followed by an approx. 5-7-day recovery phase, during which the plants were once again kept under good growth conditions in a greenhouse. In order to rule out any influence of the effects observed by any fungicidal action of the test compounds, it was additionally ensured that the tests proceed without fungal infection and without infection pressure. After the recovery phase had ended, the intensities of damage were rated visually compared to untreated, unstressed controls of the same age (in the case of drought stress) or the same growth stage (in the case of cold stress). The intensity of damage was first assessed as a percentage (100%=plants have died, 0%=like control plants). These values were then used to calculate the efficacy of the test compounds (=percentage reduction in the intensity of damage as a result of substance application) by the following formula: [formula] EF: efficacy (%) DVus: damage value of the untreated, stressed control DVts: damage value of the plants treated with test compound The tables below list mean values in each case from three results of the same test. Effects of selected compounds of the formula (I) under drought stress: BRSNS=Brassica napus

[3] = test system: Zea mays (ZEAMX); assay: as above; settings: 25 g/ha, mean of three results
Protocol: Seeds of monocotyledonous and dicotyledonous crop plants were placed in sandy loam in wood-fiber pots, covered with soil and cultivated in a greenhouse under good growth conditions. The test plants were treated at the early leaf stage (BBCH10-BBCH13). To ensure uniform water supply before commencement of stress, the potted plants were supplied with the maximum amount of water immediately beforehand by dam irrigation and, after application, transferred in plastic inserts in order to prevent subsequent, excessively rapid drying. The inventive compounds, formulated in the form of wettable powders (WP), wettable granules (WG), suspension concentrates (SC) or emulsion concentrates (EC), were sprayed onto the green parts of the plants as an aqueous suspension at an equivalent water application rate of 600 l/ha with addition of 0.2% wetting agent (agrotin). Substance application was followed immediately by stress treatment of the plants (cold or drought stress). For cold stress treatment, the plants were kept under the following controlled conditions: Drought stress was induced by gradual drying out under the following conditions: “day”: 14 hours with illumination at 26° C. “night”: 10 hours without illumination at 18° C. The duration of the respective stress phases was guided mainly by the state of the untreated, stressed control plants and thus varies from crop to crop. It was ended (by re-irrigating or transfer to a greenhouse with good growth conditions) as soon as irreversible damage is observed on the untreated, stressed control plants. In the case of dicotyledonous crops, for example oilseed rape and soya, the duration of the drought stress phase was between 3 and 5 days, in the case of monocotyledonous crops, for example wheat, barley or corn, between 6 and 10 days. The duration of the cold stress phase varied between 12 and 14 days. The end of the stress phase was followed by an approx. 5-7-day recovery phase, during which the plants were once again kept under good growth conditions in a greenhouse. In order to rule out any influence of the effects observed by any fungicidal action of the test compounds, it was additionally ensured that the tests proceed without fungal infection and without infection pressure. After the recovery phase had ended, the intensities of damage were rated visually compared to untreated, unstressed controls of the same age (in the case of drought stress) or the same growth stage (in the case of cold stress). The intensity of damage was first assessed as a percentage (100%=plants have died, 0%=like control plants). These values were then used to calculate the efficacy of the test compounds (=percentage reduction in the intensity of damage as a result of substance application) by the following formula: [formula] EF: efficacy (%) DVus: damage value of the untreated, stressed control DVts: damage value of the plants treated with test compound The tables below list mean values in each case from three results of the same test. Effects of selected compounds of the formula (I) under drought stress: ZEAMX=Zea mays

NC(=O)c1cccc2[nH]c(C(F)(F)F)nc12 [1-14]
>5%: EF (ZEAMX), efficacy = percentage reduction in the intensity of damage [1] | EF (BRSNS), efficacy = percentage reduction in the intensity of damage [2] | EF (ZEAMX), efficacy = percentage reduction in the intensity of damage [3]
